biological target: Carbonic anhydrase 9 (Homo sapiens, UniProt Q16790); test: Inhibition of human carbonic anhydrase 9 incubated for 10 mins by stopped flow CO2 hydrase assay

Row | SMILES | Ki [nM]
1 | NS(=O)(=O)c1cccc(/N=C/c2ccc(/C=N/c3cccc(S(N)(=O)=O)c3)cc2)c1 | 1470
2 | NS(=O)(=O)c1ccc(CC/N=C/c2cccc(/C=N/CCc3ccc(S(N)(=O)=O)cc3)c2)cc1 | 319
3 | NS(=O)(=O)c1ccc(/N=C/c2ccc(/C=N/c3ccc(S(N)(=O)=O)cc3)cc2)cc1 | 934
4 | NS(=O)(=O)c1ccc(CC/N=C/c2ccc(/C=N/CCc3ccc(S(N)(=O)=O)cc3)o2)cc1 | 153
5 | NS(=O)(=O)c1ccc(CC/N=C/c2ccc(/C=N/CCc3ccc(S(N)(=O)=O)cc3)cc2)cc1 | 261
6 | NS(=O)(=O)c1ccc(/N=C/c2cccc(/C=N/c3ccc(S(N)(=O)=O)cc3)c2)cc1 | 93.1
7 | NS(=O)(=O)c1cccc(/N=C/c2ccc(/C=N/c3cccc(S(N)(=O)=O)c3)o2)c1 | 516
8 | NS(=O)(=O)c1cccc(/N=C/c2cccc(/C=N/c3cccc(S(N)(=O)=O)c3)c2)c1 | 678

Now those with a lower Ki, led by results:

Row | Ki [nM] | SMILES
9 | 76.2 | NS(=O)(=O)c1ccc(/N=C/c2ccc(/C=N/c3ccc(S(N)(=O)=O)cc3)o2)cc1
10 | 25.2 | NS(=O)(=O)c1nnc(/N=C/c2ccc(/C=N/c3nnc(S(N)(=O)=O)s3)cc2)s1
11 | 17.9 | NS(=O)(=O)c1ccc(CC/N=C/c2ccccc2/C=N/CCc2ccc(S(N)(=O)=O)cc2)cc1
12 | 5.9 | NS(=O)(=O)c1nnc(/N=C/c2ccc(/C=N/c3nnc(S(N)(=O)=O)s3)o2)s1
13 | 0.5 | NS(=O)(=O)c1nnc(/N=C/c2cccc(/C=N/c3nnc(S(N)(=O)=O)s3)c2)s1
14 | 21.8 | NS(=O)(=O)c1ccc(/N=C/c2ccccc2/C=N/c2ccc(S(N)(=O)=O)cc2)cc1
15 | 5.8 | NS(=O)(=O)c1nnc(/N=C/c2ccccc2/C=N/c2nnc(S(N)(=O)=O)s2)s1
16 | 89.6 | NS(=O)(=O)c1cccc(/N=C/c2ccccc2/C=N/c2cccc(S(N)(=O)=O)c2)c1

biological target: Carbonic anhydrase 1 (Homo sapiens, UniProt P00915); test: Inhibition of human carbonic anhydrase 1 incubated for 10 mins by stopped flow CO2 hydrase assay
Sequence (P00915 whole entry): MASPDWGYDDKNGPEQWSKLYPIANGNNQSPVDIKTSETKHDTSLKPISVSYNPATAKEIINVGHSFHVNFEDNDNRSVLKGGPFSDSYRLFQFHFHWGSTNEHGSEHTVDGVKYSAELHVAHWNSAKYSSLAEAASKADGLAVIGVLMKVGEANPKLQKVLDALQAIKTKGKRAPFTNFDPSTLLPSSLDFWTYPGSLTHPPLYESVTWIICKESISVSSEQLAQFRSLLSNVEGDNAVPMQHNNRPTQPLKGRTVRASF

Row | Ki [nM] | SMILES
17 | > 10000 | NS(=O)(=O)c1cccc(/N=C/c2ccc(/C=N/c3cccc(S(N)(=O)=O)c3)o2)c1

— ChEMBL document CHEMBL4033634, “Synthesis and biological evaluation of novel aromatic and heterocyclic bis-sulfonamide Schiff bases as carbonic anhydrase I, II, VII and IX inhibitors” (Bioorg Med Chem, 2017)
